Test results taken from ChEMBL document CHEMBL5154636, “Discovery of STAT3 and Histone Deacetylase (HDAC) Dual-Pathway Inhibitors for the Treatment of Solid Cancer” (J Med Chem, 2021).
Calls of active or inactive are those of the source. The rule behind the calls is not given here.

How the values were obtained:
[1] = Clearance in Sprague-Dawley rat at 2 mg/kg, iv measured upto 24 hrs by LC-MS/MS analysis; format: ADME, organism-based; conditions: in vivo
4T1 = experiment: Antitumor activity against mouse 4T1 cells allografted in BALB/c mouse assessed as reduction in tumor weight at 15 mg/kg, ip qd for 21 days by vernier caliper method relative to control; format: functional; parameters: scale not given: the % may be the effect or the level left; conditions: time 21 day
MDA-MB-231 [2] = experiment: Induction of apoptosis in human MDA-MB-231 cells assessed as viable cells at 10 uM incubated for 24 hrs by Annexin-V/FITC and PI staining based flow cytometry analysis (reference value: 97.8%); format: functional; conditions: read-out: Activity
[3] = Half life in Sprague-Dawley rat at 2 mg/kg, iv measured upto 24 hrs by LC-MS/MS analysis; format: ADME, organism-based; conditions: in vivo
[4] = molecular target: T1, Signal transducer and activator of transcription 3 (Homo sapiens, UniProt P40763); experiment: Inhibition of STAT3 in human MDA-MB-231 cells assessed as decrease in Bcl-2 protein expression at 0.5 to 5 uM after 24 hrs by Western blot analysis; format: cell-based; conditions: dose 0.5-5 µM
MDA-MB-231 [5] = experiment: Induction of apoptosis in human MDA-MB-231 cells assessed as increase in cleaved PARP level at 0.5 to 5 uM incubated for 24 hrs by Western blot analysis; format: functional, cell-based; conditions: dose 0.5-5 µM
MDA-MB-231 [6] = experiment: Induction of apoptosis in human MDA-MB-231 cells assessed as necrotic cells at 10 uM incubated for 24 hrs by Annexin-V/FITC and PI staining based flow cytometry analysis (reference value: 0.0%); format: functional
[7] = molecular target: Histone deacetylase 4 (Homo sapiens) (UniProt P56524); experiment: Inhibition of recombinant human HDAC4 at 10 uM using […] substrate by fluorescence assay relative to control
[8] = molecular target: T1, Signal transducer and activator of transcription 3; experiment: Inhibition of STAT3 in human MDA-MB-231 cells assessed as decrease in cyclin-D1 protein expression at 0.5 to 5 uM after 24 hrs by Western blot analysis; format: cell-based; conditions: dose 0.5-5 µM
[9] = molecular target: T1, Signal transducer and activator of transcription 3; experiment: Inhibition of STAT3 in human MDA-MB-231 cells assessed as decrease in Bcl-2 mRNA expression at 0.5 to 5 uM by qRT-PCR analysis; format: cell-based; conditions: dose 0.5-5 µM
[10] = Volume of distribution at steady state in Sprague-Dawley rat at 2 mg/kg, iv measured upto 24 hrs by LC-MS/MS analysis; format: ADME, organism-based; conditions: in vivo, read-out: Vdss
[11] = molecular target: T2, Protein deacetylase HDAC6 (Homo sapiens, UniProt Q9UBN7); experiment: Inhibition of recombinant human HDAC6 using RHKK(Ac)AMC fluorogenic peptide as substrate by fluorescence assay
T2 sequence (Q9UBN7 whole entry): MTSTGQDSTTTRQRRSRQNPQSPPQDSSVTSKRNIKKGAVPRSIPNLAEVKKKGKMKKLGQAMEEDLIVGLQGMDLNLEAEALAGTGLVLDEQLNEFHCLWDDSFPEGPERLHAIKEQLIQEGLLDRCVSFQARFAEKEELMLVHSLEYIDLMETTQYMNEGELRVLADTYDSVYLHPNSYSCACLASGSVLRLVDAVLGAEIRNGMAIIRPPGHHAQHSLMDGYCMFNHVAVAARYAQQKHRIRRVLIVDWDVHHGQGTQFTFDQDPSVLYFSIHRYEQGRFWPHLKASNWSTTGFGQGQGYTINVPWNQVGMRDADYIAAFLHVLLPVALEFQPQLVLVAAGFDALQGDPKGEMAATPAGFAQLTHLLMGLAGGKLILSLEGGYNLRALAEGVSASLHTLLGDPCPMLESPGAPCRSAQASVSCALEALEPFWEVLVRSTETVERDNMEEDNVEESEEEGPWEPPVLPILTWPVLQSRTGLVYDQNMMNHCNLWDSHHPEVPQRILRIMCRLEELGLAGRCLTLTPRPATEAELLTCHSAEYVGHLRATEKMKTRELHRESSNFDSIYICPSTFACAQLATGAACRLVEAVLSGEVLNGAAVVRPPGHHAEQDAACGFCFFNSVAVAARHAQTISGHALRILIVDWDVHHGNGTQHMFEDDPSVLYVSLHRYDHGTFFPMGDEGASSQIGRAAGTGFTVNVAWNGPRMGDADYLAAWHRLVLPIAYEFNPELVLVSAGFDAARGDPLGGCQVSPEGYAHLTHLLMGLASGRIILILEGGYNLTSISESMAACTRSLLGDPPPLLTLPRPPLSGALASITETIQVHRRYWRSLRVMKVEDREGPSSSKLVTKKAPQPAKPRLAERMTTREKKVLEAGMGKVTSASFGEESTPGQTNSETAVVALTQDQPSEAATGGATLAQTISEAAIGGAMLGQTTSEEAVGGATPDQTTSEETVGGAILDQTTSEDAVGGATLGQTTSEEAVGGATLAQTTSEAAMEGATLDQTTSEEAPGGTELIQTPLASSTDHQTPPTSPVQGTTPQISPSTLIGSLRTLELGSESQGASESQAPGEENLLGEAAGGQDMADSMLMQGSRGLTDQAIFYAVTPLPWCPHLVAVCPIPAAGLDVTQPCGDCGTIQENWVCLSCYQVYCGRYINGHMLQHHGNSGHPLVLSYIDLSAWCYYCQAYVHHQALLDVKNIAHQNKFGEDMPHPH

HCT-116 = experiment: Cytotoxicity against human HCT-116 cells assessed as reduction in cell viability incubated for 48 hrs by MTT assay; format: functional, cell-based; conditions: HCT-116, 48 h
MDA-MB-231 [12] = experiment: Induction of apoptosis in human MDA-MB-231 cells assessed as chromatin condensation at 0.5 to 5 uM incubated for 24 hrs by Hoechst 33258 staining based fluorescence microscopy analysis; format: functional, cell-based; conditions: dose 0.5-5 µM
[13] = molecular target: T1, Signal transducer and activator of transcription 3; experiment: Inhibition of STAT3 in human MDA-MB-231 cells assessed as decrease in cyclin D1 mRNA expression at 0.5 to 5 uM by qRT-PCR analysis; format: cell-based; conditions: dose 0.5-5 µM
MDA-MB-231 [14] = experiment: Induction of apoptosis in human MDA-MB-231 cells assessed as chromatinorrhexis at 0.5 to 5 uM incubated for 24 hrs by Hoechst 33258 staining based fluorescence microscopy analysis; format: functional, cell-based; conditions: dose 0.5-5 µM
MCF-10A = experiment: Cytotoxicity against human MCF-10 A cells assessed as reduction in cell viability at 32 uM incubated for 48 hrs by MTT assay relative to control; format: toxicity, cell-based
Histone deacetylase 1 = Histone deacetylase 1 (Homo sapiens, UniProt Q13547); experiment: Inhibition of recombinant human HDAC1 using RHKK(Ac)AMC fluorogenic peptide as substrate by fluorescence assay
MDA-MB-231 [15] = experiment: Inhibition of colony formation in human MDA-MB-231 cells at 0.5 to 0.5 uM incubated for 24 hrs followed by culturing in fresh compound-free medium for 15 days by crystal violet dye based assay; format: functional, cell-based; conditions: dose 0.5-0.5 µM
[16] = molecular target: Histone deacetylase (Homo sapiens) (UniProt Q13547+O15379+Q9UBN7+Q92769+Q9UQL6+Q8WUI4+Q9BY41+Q96DB2+P56524+Q9UKV0+Q969S8); experiment: Inhibition of HDAC in human MDA-MB-231 cells assessed as increase in histone H3 acetylation incubated for 24 hrs by Western blot analysis; format: cell-based; conditions: dose 0.5-5 µM, DDE = dose-dependent effect

T1 sequence (P40763 whole entry): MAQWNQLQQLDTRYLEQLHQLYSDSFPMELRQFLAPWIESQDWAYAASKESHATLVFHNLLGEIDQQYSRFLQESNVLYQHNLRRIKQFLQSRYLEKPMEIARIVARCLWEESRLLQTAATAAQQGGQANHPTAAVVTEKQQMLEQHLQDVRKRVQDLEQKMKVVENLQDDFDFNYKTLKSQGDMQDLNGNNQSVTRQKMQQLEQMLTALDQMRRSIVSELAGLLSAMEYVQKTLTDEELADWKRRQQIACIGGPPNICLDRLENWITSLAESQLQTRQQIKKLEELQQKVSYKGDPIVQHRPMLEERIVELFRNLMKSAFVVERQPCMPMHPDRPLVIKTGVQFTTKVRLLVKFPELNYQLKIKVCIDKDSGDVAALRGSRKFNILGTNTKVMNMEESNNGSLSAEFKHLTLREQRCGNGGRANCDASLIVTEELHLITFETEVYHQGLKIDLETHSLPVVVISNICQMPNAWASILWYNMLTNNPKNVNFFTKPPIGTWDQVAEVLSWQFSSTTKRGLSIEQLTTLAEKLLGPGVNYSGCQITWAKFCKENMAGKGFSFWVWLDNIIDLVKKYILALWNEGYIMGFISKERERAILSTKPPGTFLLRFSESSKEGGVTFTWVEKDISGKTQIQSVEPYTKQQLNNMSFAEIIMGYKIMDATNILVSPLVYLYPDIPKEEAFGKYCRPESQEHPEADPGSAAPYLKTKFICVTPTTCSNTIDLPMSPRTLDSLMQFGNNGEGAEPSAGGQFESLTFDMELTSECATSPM
Histone deacetylase 1, sequence (Q13547 whole entry): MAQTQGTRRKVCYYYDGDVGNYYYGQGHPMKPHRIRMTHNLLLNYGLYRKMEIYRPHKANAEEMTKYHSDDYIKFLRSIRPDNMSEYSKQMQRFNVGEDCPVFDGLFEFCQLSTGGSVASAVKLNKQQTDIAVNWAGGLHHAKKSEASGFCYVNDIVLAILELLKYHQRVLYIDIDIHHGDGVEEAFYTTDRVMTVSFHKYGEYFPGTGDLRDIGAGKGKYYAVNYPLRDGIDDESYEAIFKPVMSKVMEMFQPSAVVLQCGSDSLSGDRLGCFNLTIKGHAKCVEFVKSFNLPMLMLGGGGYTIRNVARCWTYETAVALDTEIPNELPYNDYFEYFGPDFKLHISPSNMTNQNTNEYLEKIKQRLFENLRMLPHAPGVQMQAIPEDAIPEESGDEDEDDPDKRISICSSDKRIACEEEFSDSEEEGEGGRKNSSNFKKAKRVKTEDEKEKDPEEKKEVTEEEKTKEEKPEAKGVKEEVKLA
Histone deacetylase 4 (Homo sapiens), sequence (P56524 whole entry): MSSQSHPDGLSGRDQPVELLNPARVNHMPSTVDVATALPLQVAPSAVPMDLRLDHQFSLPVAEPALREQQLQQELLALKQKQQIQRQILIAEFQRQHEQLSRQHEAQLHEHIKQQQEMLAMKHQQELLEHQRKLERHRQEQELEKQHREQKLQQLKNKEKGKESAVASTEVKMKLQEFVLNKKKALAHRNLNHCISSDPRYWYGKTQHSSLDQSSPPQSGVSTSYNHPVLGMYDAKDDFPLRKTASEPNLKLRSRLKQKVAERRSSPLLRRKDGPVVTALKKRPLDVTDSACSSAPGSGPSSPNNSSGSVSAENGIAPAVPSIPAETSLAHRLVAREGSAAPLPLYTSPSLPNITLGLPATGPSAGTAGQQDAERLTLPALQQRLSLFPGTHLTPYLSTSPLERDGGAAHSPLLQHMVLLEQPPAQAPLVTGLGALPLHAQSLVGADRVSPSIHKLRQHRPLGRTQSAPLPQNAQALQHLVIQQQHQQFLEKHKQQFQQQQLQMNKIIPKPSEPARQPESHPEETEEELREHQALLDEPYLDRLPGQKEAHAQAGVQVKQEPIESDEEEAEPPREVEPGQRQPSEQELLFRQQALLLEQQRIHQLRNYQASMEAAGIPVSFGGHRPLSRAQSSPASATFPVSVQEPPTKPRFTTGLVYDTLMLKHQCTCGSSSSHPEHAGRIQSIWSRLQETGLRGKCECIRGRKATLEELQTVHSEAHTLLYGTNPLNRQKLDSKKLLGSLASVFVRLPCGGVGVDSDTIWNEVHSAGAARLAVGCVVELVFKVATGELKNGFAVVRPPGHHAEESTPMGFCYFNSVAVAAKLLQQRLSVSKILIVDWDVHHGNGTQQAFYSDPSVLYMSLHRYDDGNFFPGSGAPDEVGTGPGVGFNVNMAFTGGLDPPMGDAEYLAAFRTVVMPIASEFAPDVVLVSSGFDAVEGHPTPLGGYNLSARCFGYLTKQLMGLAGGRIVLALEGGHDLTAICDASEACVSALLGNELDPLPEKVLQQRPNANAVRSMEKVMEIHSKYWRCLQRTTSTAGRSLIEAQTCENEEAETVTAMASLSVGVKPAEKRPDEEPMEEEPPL

Question: For COc1cc(/C=C/c2ccc(OCCCCCCC(=O)NO)cc2)cc(OC)c1, which clearance [1] is on record?
Answer: 63.9 mL/min/kg

Question: What about the Activity (4T1) of the same compound?
Answer: 53%

Question: What about the viability at 10 µM (MDA-MB-231 [2]) of the same compound?
Answer: 40.5%

Question: And the half-life [3]?
Answer: 28.2 min

Question: What about the inhibition [4] of the same compound?
Answer: Active

Question: And the Activity (MDA-MB-231 [5])?
Answer: Active

Question: And the Activity (MDA-MB-231 [6])?
Answer: 0.2%

Question: And the inhibition [7]?
Answer: 12%

Question: What about the inhibition [8] of the same compound?
Answer: Active

Question: And the inhibition [9]?
Answer: Active

Question: And the Vd [10]?
Answer: 1.65 L/kg

Question: What about the IC50 [11] of the same compound?
Answer: 104 nM

Question: What about the IC50 (HCT-116) of the same compound?
Answer: 1070 nM

Question: And the Activity (MDA-MB-231 [12])?
Answer: Active

Question: And the inhibition [13]?
Answer: Active

Question: What about the Activity (MDA-MB-231 [14]) of the same compound?
Answer: Active

Question: What about the Activity (MCF-10A) of the same compound?
Answer: 38%

Question: And the IC50 (Histone deacetylase 1)?
Answer: 683 nM

Question: What about the inhibition (MDA-MB-231 [15]) of the same compound?
Answer: Active

Question: What about the Activity [16] of the same compound?
Answer: Dde
